# What was measured:
# Assay type in all cases: in vivo
# [1] = tested on: oilseed rape (Brassica napus); experiment: Test D controlled growth environment herbicide test, pre- and postemergence; conditions: for Oilseed Rape plant response rating / Plant response rating (scale of 0 to 100), Oilseed Rape: 31 g ai/ha
# Summary of the method: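 Pre-emergence: seeds sown in silt loam soil were sprayed with compound in a non-phytotoxic solvent mix containing surfactant. Post-emergence: plants at 2 to 18 cm (1- to 4-leaf stage) in peat moss/vermiculite medium got the same formulation. Visual 0–100 rating versus controls after 14 to 21 d.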
# [2] = tested on: Italian ryegrass (Lolium multiflorum); experiment: Test E greenhouse herbicide test, pre- and postemergence
# Summary of the method: (§1)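 Seeds were sown in silt loam and sprayed preemergence with compound in a non-phytotoxic solvent mix containing surfactant; for postemergence, plants at 2 to 18 cm (1- to 4-leaf stage) in peat-based potting medium were sprayed with the same formulation. After 14 to 21 d in a greenhouse, injury was rated visually against controls (0–100).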
# [3] = tested on: beggarticks (hairy beggarticks, Bidens pilosa); experiment: as above
# Summary of the method: as §1
# [4] = tested on: crabgrass, Brazilian (Brazilian crabgrass, Digitaria horizontalis); experiment: as above
# Summary of the method: as §1
# [5] = tested on: field bindweed (Convolvulus arvensis); experiment: as above
# Summary of the method: as §1
# [6] = tested on: foxtail, green (green foxtail, Setaria viridis); experiment: as above; conditions: Preemergence
# Summary of the method: as §1
# [7] = tested on: johnsongrass (Sorghum halepense); experiment: as above; conditions: Preemergence
# Summary of the method: as §1
# [8] = tested on: kochia (Kochia scoparia); experiment: as above
# Summary of the method: as §1
# [9] = tested on: nutsedge, yellow (yellow nutsedge, Cyperus esculentus); experiment: as above; conditions: Preemergence
# Summary of the method: as §1
# [10] = tested on: waterhemp (common waterhemp, Amaranthus rudis); experiment: as above
# Summary of the method: as §1
# [11] = Postemergence, scale 0 to 100 (0 no effect, 100 complete control)
# [12] = Postemergence, 125 g ai/ha, visual rating on scale 0 (no effect) to 100 (complete control), 14 to 21 d
# [13] = Postemergence, 250 g ai/ha, scale 0 to 100 (0 no effect, 100 complete control)
# [14] = Preemergence, 62 g ai/ha, scale 0 to 100 (0 no effect, 100 complete control)
# [15] = Preemergence, 125 g ai/ha, scale 0 to 100 (0 no effect, 100 complete control)
# [16] = Preemergence, 250 g ai/ha, scale 0 to 100 (0 no effect, 100 complete control)
# [17] = postemergence, 62 g ai/ha, scale 0 to 100, 0 no effect, 100 complete control
# [18] = 62 g ai/ha, Postemergence, scale 0 to 100 (0 no effect, 100 complete control)
# [19] = 62 g ai/ha, Preemergence, scale 0 to 100 (0 no effect, 100 complete control)
# [20] = 125 g ai/ha, Postemergence, scale 0 to 100 (0 no effect, 100 complete control)
# [21] = 125 g ai/ha, Preemergence, scale 0 to 100 (0 no effect, 100 complete control)
# [22] = 250 g ai/ha, Postemergence, scale 0 to 100 (0 no effect, 100 complete control)
# [23] = Postemergence, 31 g ai/ha, visual, scale 0 no effect to 100 complete control
# [24] = Preemergence, 31 g ai/ha, scale 0 to 100, 0 no effect, 100 complete control
# [25] = Preemergence, 250 g ai/ha, visual, scale 0 no effect to 100 complete control
# [26] = 62 g ai/ha, scale 0 to 100 (0 no effect, 100 complete control)
# [27] = 125 g ai/ha, scale 0 to 100 (0 no effect, 100 complete control)
# [28] = 31 g ai/ha, scale 0 to 100, 0 no effect, 100 complete control
# [29] = 250 g ai/ha, visual, scale 0 no effect to 100 complete control
# [30] = Preemergence, 125 g ai/ha, visual, scale 0 no effect to 100 complete control
# [31] = 125 g ai/ha, visual, scale 0 no effect to 100 complete control
structure (smiles),measurement,setting,value
COC(=O)Oc1c(C)nn(C)c(=O)c1-c1c(C)sc2c(C)cc(C)cc12 [Compound 81],Oilseed Rape plant response rating,[1]; [11],70
same,"Plant response rating, Oilseed Rape",[1]; [12],75
same,"Plant response rating, Oilseed Rape",[1]; [13],85
same,"Plant response rating (scale of 0 to 100), Oilseed Rape",[1]; Preemergence,0
same,"Plant response rating, Oilseed Rape",[1]; [14],0
same,"Plant response rating, Oilseed Rape",[1]; [15],50
same,"Plant response rating, Oilseed Rape",[1]; [16],100
same,"Plant response rating, Oilseed Rape",[1]; [17],70
same,"Plant response rating, Ryegrass, Italian",[2]; [18],70
same,"Plant response rating, Ryegrass, Italian",[2]; [19],95
same,"Plant response rating, Ryegrass, Italian",[2]; [20],75
same,"Plant response rating, Ryegrass, Italian",[2]; [21],90
same,"Plant response rating, Ryegrass, Italian",[2]; [22],80
same,"Plant response rating, Ryegrass, Italian",[2]; [23],50
same,"Plant response rating, Ryegrass, Italian",[2]; [24],75
same,"Plant response rating, Ryegrass, Italian",[2]; [25],100
same,"Plant response rating, Beggarticks",[3]; [18],100
same,"Plant response rating, Beggarticks",[3]; [19],100
same,"Plant response rating, Beggarticks",[3]; [20],100
same,"Plant response rating, Beggarticks",[3]; [21],100
same,"Plant response rating, Beggarticks",[3]; [22],100
same,"Plant response rating, Beggarticks",[3]; [23],90
same,"Plant response rating, Beggarticks",[3]; [24],80
same,"Plant response rating, Beggarticks",[3]; [25],100
same,"Plant response rating, Crabgrass, Brazil",[4]; [18],40
same,"Plant response rating, Crabgrass, Brazil",[4]; [19],95
same,"Plant response rating, Crabgrass, Brazil",[4]; [20],50
same,"Plant response rating, Crabgrass, Brazil",[4]; [21],90
same,"Plant response rating, Crabgrass, Brazil",[4]; [22],50
same,"Plant response rating, Crabgrass, Brazil",[4]; [23],40
same,"Plant response rating, Crabgrass, Brazil",[4]; [24],65
same,"Plant response rating, Crabgrass, Brazil",[4]; [25],100
same,"Plant response rating, Field Bindweed",[5]; [18],65
same,"Plant response rating, Field Bindweed",[5]; [19],0
same,"Plant response rating, Field Bindweed",[5]; [20],75
same,"Plant response rating, Field Bindweed",[5]; [21],75
same,"Plant response rating, Field Bindweed",[5]; [22],85
same,"Plant response rating, Field Bindweed",[5]; [23],60
same,"Plant response rating, Field Bindweed",[5]; [24],0
same,"Plant response rating, Field Bindweed",[5]; [25],100
same,"Plant response rating, Foxtail, Green",[6]; [26],70
same,"Plant response rating, Foxtail, Green",[6]; [27],95
same,"Plant response rating, Foxtail, Green",[6]; [28],20
same,"Plant response rating, Foxtail, Green",[6]; [29],100
same,"Plant response rating, Johnsongrass",[7]; [26],90
same,"Plant response rating, Johnsongrass",[7]; [27],65
same,"Plant response rating, Johnsongrass",[7]; [28],70
same,"Plant response rating, Johnsongrass",[7]; [29],100
same,"Plant response rating, Kochia",[8]; [18],70
same,"Plant response rating, Kochia",[8]; [19],20
same,"Plant response rating, Kochia",[8]; [20],70
same,"Plant response rating, Kochia",[8]; [21],35
same,"Plant response rating, Kochia",[8]; [22],75
same,"Plant response rating, Kochia",[8]; [23],60
same,"Plant response rating, Kochia",[8]; [24],0
same,"Plant response rating, Kochia",[8]; [25],100
same,"Plant response rating, Nutsedge, Yellow",[9]; [26],30
same,"Plant response rating, Nutsedge, Yellow",[9]; [27],80
same,"Plant response rating, Nutsedge, Yellow",[9]; [28],35
same,"Plant response rating, Nutsedge, Yellow",[9]; [29],90
same,"Plant response rating, Waterhemp",[10]; [19],90
same,"Plant response rating, Waterhemp",[10]; [20],60
same,"Plant response rating, Waterhemp",[10]; [21],90
same,"Plant response rating, Waterhemp",[10]; [22],75
same,"Plant response rating, Waterhemp",[10]; [23],50
same,"Plant response rating, Waterhemp",[10]; [24],60
same,"Plant response rating, Waterhemp",[10]; [25],90
Cc1ccc2ccccc2c1-c1c(O)c(C)nn(C)c1=O [Compound 59],Oilseed Rape plant response rating,[1]; [11],60
same,"Plant response rating, Oilseed Rape",[1]; [12],85
same,"Plant response rating, Oilseed Rape",[1]; [13],90
same,"Plant response rating (scale of 0 to 100), Oilseed Rape",[1]; Preemergence,20
same,"Plant response rating, Oilseed Rape",[1]; [14],30
same,"Plant response rating, Oilseed Rape",[1]; [15],50
same,"Plant response rating, Oilseed Rape",[1]; [16],80
same,"Plant response rating, Oilseed Rape",[1]; [17],70
same,"Plant response rating, Ryegrass, Italian",[2]; [19],100
same,"Plant response rating, Ryegrass, Italian",[2]; [21],100
same,"Plant response rating, Ryegrass, Italian",[2]; [24],100
same,"Plant response rating, Ryegrass, Italian",[2]; [25],100
same,"Plant response rating, Beggarticks",[3]; [19],100
same,"Plant response rating, Beggarticks",[3]; [24],100
same,"Plant response rating, Beggarticks",[3]; [30],100
same,"Plant response rating, Beggarticks",[3]; [25],100
same,"Plant response rating, Crabgrass, Brazil",[4]; [19],90
same,"Plant response rating, Crabgrass, Brazil",[4]; [24],60
same,"Plant response rating, Crabgrass, Brazil",[4]; [30],100
same,"Plant response rating, Crabgrass, Brazil",[4]; [25],100
same,"Plant response rating, Field Bindweed",[5]; [19],75
same,"Plant response rating, Field Bindweed",[5]; [24],65
same,"Plant response rating, Field Bindweed",[5]; [30],95
same,"Plant response rating, Field Bindweed",[5]; [25],95
same,"Plant response rating, Foxtail, Green",[6]; [26],90
same,"Plant response rating, Foxtail, Green",[6]; [28],65
same,"Plant response rating, Foxtail, Green",[6]; [31],95
same,"Plant response rating, Foxtail, Green",[6]; [29],100
same,"Plant response rating, Johnsongrass",[7]; [26],25
same,"Plant response rating, Johnsongrass",[7]; [28],0
same,"Plant response rating, Johnsongrass",[7]; [31],80
same,"Plant response rating, Johnsongrass",[7]; [29],80
same,"Plant response rating, Kochia",[8]; [19],90
same,"Plant response rating, Kochia",[8]; [24],80
same,"Plant response rating, Kochia",[8]; [30],100
same,"Plant response rating, Kochia",[8]; [25],100
same,"Plant response rating, Nutsedge, Yellow",[9]; [26],35
same,"Plant response rating, Nutsedge, Yellow",[9]; [27],75
same,"Plant response rating, Nutsedge, Yellow",[9]; [28],50
same,"Plant response rating, Nutsedge, Yellow",[9]; [29],70
same,"Plant response rating, Waterhemp",[10]; [19],100
same,"Plant response rating, Waterhemp",[10]; [21],100
same,"Plant response rating, Waterhemp",[10]; [24],75
same,"Plant response rating, Waterhemp",[10]; [25],100
